This is an account of results in patent US12383653B2, “Neutral multidomain peptide hydrogels and uses thereof” (William Marsh Rice University, priority 2018, dated 2025).

Assay type in all cases: physicochemical
Series [1] can be described thus: Secondary structure estimation from circular dichroism in TFE, least square linear method. As to conditions: TFE at 25° C., 1 wt.%. The procedure:
Circular Dichroism (CD) spectroscopy. For secondary structure characterization, peptide solutions of 1% by weight (molar concentration is included in Table 2) were prepared in 2,2,2-trifluoroethanol (TFE, Sigma Aldrich, St. Louis, MO). CD spectra acquisition was performed in a CD Jasco J-810 spectropolarimeter (Jasco Inc., Easton, MD) using a 0.01 mm cuvette. Data were collected at room temperature from 180 to 250 nm at a speed of 50 nm/min, with a 0.1 nm data pitch and the spectra were averaged over 5 scans. To study the hydrogelation of O5, 1% by weight peptide solutions were made in 149 mM sucrose solution in 0.5× Hank's Balanced Salt Solution (HBSS, Life Technologies) and analyzed as previously described.
To estimate the secondary structure of O peptide series, data fitting using the least square linear method was performed in MATLAB (Mathworks, Natick, MA). (Hyp)6, O1(SL)6O1 and K2(SL)6K2 were used as basis spectra for polyproline type II, β-sheet and α-helix, respectively (FIG. 7).

Series [2] can be described thus: Solubility of peptides in water.
The nature of series [3]: Hydrogel formation (inverted-vial test, pH, ionic strength, buffers). As to conditions: for hydrogel formation at acidic, neutral and basic pH: 1% by weight, pH adjusted with HCl or NaOH, inverted-vial test / CD. Here is the method: Hydrogel Formation. Peptide solutions of O5 were prepared at 1% by weight (4.2 mM) in 149 mM sucrose and 0.5×HBSS. This buffer system was chosen to be consistent with prior MDP experiments and find optimum gelling conditions for future in vivo and in vitro work. Peptide solutions were sonicated using a Microson Ultrasonic Cell Disruptor with a 2 mm microprobe. The instrument frequency was 22.5 kHz and a power output up to 10 watts (RMS) was used. Solutions were sonicated at room temperature for 1 or 10 cycles, where each cycle consisted of 10 pulses and 1 min relaxation time between cycles. For the study of hydrogelation of O5, K2 and E2 at different pH values and ionic strength, 1% by weight peptide solutions were prepared in deionized water, PBS, or HBSS. pH was adjusted using HCl or NaOH 0.1 M solutions.

“Also recorded” adds a separate entry of the source. Where a SMILES comes first, the peptide text is derived from it. [ ]: non-standard residue; d: D form. Hyp = O=C(O)[C@@H]1C[C@@H](O)CN1

With `CC(=O)N1C[C@H](O)C[C@H]1C(=O)N[C@@H](CO)C(=O)N[C@@H](CC(C)C)C(=O)N[C@@H](CO)C(=O)N[C@@H](CC(C)C)C(=O)N[C@@H](CO)C(=O)N[C@@H](CC(C)C)C(=O)N[C@@H](CO)C(=O)N[C@@H](CC(C)C)C(=O)N[C@@H](CO)C(=O)N[C@@H](CC(C)C)C(=O)N[C@@H](CO)C(=O)N[C@@H](CC(C)C)C(=O)N1C[C@H](O)C[C@H]1C(N)=O` [Peptide O1, Ac-OSLSLSLSLSLSLO-CONH2] (Ac-[Hyp]SLSLSLSLSLSL[Hyp]-NH2), in series [1], the “% PPII” value is 0%, the “% α-helix” value was 0%, the “% β-sheet” value is on record as 100% and the “Predominant Structure” value was “β-sheet”. In series [2], this compound returned a solubility of less than 500 µg/mL.
For the compound `CC(=O)N1C[C@H](O)C[C@H]1C(=O)N1C[C@H](O)C[C@H]1C(=O)N[C@@H](CO)C(=O)N[C@@H](CC(C)C)C(=O)N[C@@H](CO)C(=O)N[C@@H](CC(C)C)C(=O)N[C@@H](CO)C(=O)N[C@@H](CC(C)C)C(=O)N[C@@H](CO)C(=O)N[C@@H](CC(C)C)C(=O)N[C@@H](CO)C(=O)N[C@@H](CC(C)C)C(=O)N[C@@H](CO)C(=O)N[C@@H](CC(C)C)C(=O)N1C[C@H](O)C[C@H]1C(=O)N1C[C@H](O)C[C@H]1C(N)=O` [Peptide O2, Ac-OOSLSLSLSLSLSLOO-CONH2] (Ac-[Hyp][Hyp]SLSLSLSLSLSL[Hyp][Hyp]-NH2), in series [1], the “% PPII” value is 29.3%, the “% α-helix” value is on record as 41.9%, the “% β-sheet” value is reported as 28.8% and the “Predominant Structure” value is “α-helix”. In series [2], this compound yielded a solubility of less than 500 µg/mL.
Taken in the same sequence, the figures for `CC(=O)N1C[C@H](O)C[C@H]1C(=O)N1C[C@H](O)C[C@H]1C(=O)N1C[C@H](O)C[C@H]1C(=O)N[C@@H](CO)C(=O)N[C@@H](CC(C)C)C(=O)N[C@@H](CO)C(=O)N[C@@H](CC(C)C)C(=O)N[C@@H](CO)C(=O)N[C@@H](CC(C)C)C(=O)N[C@@H](CO)C(=O)N[C@@H](CC(C)C)C(=O)N[C@@H](CO)C(=O)N[C@@H](CC(C)C)C(=O)N[C@@H](CO)C(=O)N[C@@H](CC(C)C)C(=O)N1C[C@H](O)C[C@H]1C(=O)N1C[C@H](O)C[C@H]1C(=O)N1C[C@H](O)C[C@H]1C(N)=O` [Peptide O3, Ac-OOOSLSLSLSLSLSLOOO-CONH2] (Ac-[Hyp][Hyp][Hyp]SLSLSLSLSLSL[Hyp][Hyp][Hyp]-NH2) were 38.4%, 36.4%, 25.2%, “PPII/α-helix” and less than 500 µg/mL.
On to `CC(=O)N1C[C@H](O)C[C@H]1C(=O)N1C[C@H](O)C[C@H]1C(=O)N1C[C@H](O)C[C@H]1C(=O)N1C[C@H](O)C[C@H]1C(=O)N[C@@H](CO)C(=O)N[C@@H](CC(C)C)C(=O)N[C@@H](CO)C(=O)N[C@@H](CC(C)C)C(=O)N[C@@H](CO)C(=O)N[C@@H](CC(C)C)C(=O)N[C@@H](CO)C(=O)N[C@@H](CC(C)C)C(=O)N[C@@H](CO)C(=O)N[C@@H](CC(C)C)C(=O)N[C@@H](CO)C(=O)N[C@@H](CC(C)C)C(=O)N1C[C@H](O)C[C@H]1C(=O)N1C[C@H](O)C[C@H]1C(=O)N1C[C@H](O)C[C@H]1C(=O)N1C[C@H](O)C[C@H]1C(N)=O` [Peptide O4, Ac-OOOOSLSLSLSLSLSLOOOO-CONH2] (Ac-[Hyp][Hyp][Hyp][Hyp]SLSLSLSLSLSL[Hyp][Hyp][Hyp][Hyp]-NH2), for which, in series [1], the “% PPII” value is on record as 41.8%, the “% α-helix” value is listed as 41.2%, the “% β-sheet” value is 17% and the “Predominant Structure” value is “PPII/α-helix”. This compound also came in with a solubility in series [2] of less than 500 µg/mL.
As to `CC(=O)N1C[C@H](O)C[C@H]1C(=O)N1C[C@H](O)C[C@H]1C(=O)N1C[C@H](O)C[C@H]1C(=O)N1C[C@H](O)C[C@H]1C(=O)N1C[C@H](O)C[C@H]1C(=O)N1C[C@H](O)C[C@H]1C(=O)N[C@@H](CO)C(=O)N[C@@H](CC(C)C)C(=O)N[C@@H](CO)C(=O)N[C@@H](CC(C)C)C(=O)N[C@@H](CO)C(=O)N[C@@H](CC(C)C)C(=O)N[C@@H](CO)C(=O)N[C@@H](CC(C)C)C(=O)N[C@@H](CO)C(=O)N[C@@H](CC(C)C)C(=O)N[C@@H](CO)C(=O)N[C@@H](CC(C)C)C(=O)N1C[C@H](O)C[C@H]1C(=O)N1C[C@H](O)C[C@H]1C(=O)N1C[C@H](O)C[C@H]1C(=O)N1C[C@H](O)C[C@H]1C(=O)N1C[C@H](O)C[C@H]1C(=O)N1C[C@H](O)C[C@H]1C(N)=O` [Peptide O6, Ac-OOOOOOSLSLSLSLSLSLOOOOOO-CONH2] (Ac-[Hyp][Hyp][Hyp][Hyp][Hyp][Hyp]SLSLSLSLSLSL[Hyp][Hyp][Hyp][Hyp][Hyp][Hyp]-NH2), in series [1], the “% PPII” value was 48.5%, the “% α-helix” value is 40.2%, the “% β-sheet” value was 11.4% and the “Predominant Structure” value was “PPII”. Further, the “state of the peptide at 10 mg/mL” value in series [3] (10 mg/mL) is “viscous solution”. In series [3] (1% by weight in 149 mM sucrose and 0.5×HBSS, ultrasonication), the “hydrogelation in cell culture media” value is on record as “dissolves to form a viscous solution”.
For “Ac-EESLSLSLSLSLSLEE-NH2 [Peptide E2, Ac-EESLSLSLSLSLSLEE-CONH2, reference compound]”, the “hydrogel formation at acidic, neutral and basic pH” value was “dependent on pH; also recorded: forms a gel at acidic pH and undergoes phase separation” in series [3]; “gels only forming at neutral pH or at elevated ionic strength” in series [3] (listed as E2(SL)6E2).

As a reminder, the solubility is the dissolved amount per volume that the medium holds. A high value points to much dissolved substance.
